Experimental findings from patent publication US20100093001A1 (priority 2006, published 2010) are described below.

Data set [1] has as its system primary neurons.
Data set [2] concerns neuronal cells.
Description: Amyloid-beta-42 was incubated for one week at 1 mg/mL in 50mM Tris-HCl pH 7.4 and controlled the presence of amyloid-beta-42 fibers by electron microscopy. These mature amyloid-beta-42 (Aβ42) fibers were subsequently harvested by centrifugation and added to primary hippocampal mouse neurons and differentiated N2A cells at a final concentration of 5 μM.

For H-ISFLIF-OH [NH2—ISFLIF—COOH], in data set [1], the cytotoxicity entry is listed as “dramatic cytotoxicity”. As to H-STVIIE-OH [NH2—STVIIE—COOH], the cytotoxicity entry in data set [1] was “dramatic cytotoxicity”. ganglioside GM1: the “N. Red (neutral red incorporation)” value in data set [2] is on record as 36.1 ± 2.9. For H-KVQIIN-OH [NH2—KVQIIN—COOH], in data set [1], the cytotoxicity entry is recorded as “dramatic cytotoxicity”.
